Assay results as given in patent US9770397B2, “Oxidative dyeing composition” (KAO GERMANY GMBH, priority 2012, dated 2017).

Tested on: scalp
Experiment: monadic use test for scalp compatibility and mildness
Design: species or system consumers
Conditions: in vivo
Description: The above compositions were tested in a monadic use test for scalp compatibility and mildness. Both compositions were used to dye hair of 30 consumers each having shoulder length hair. The composition was mixed with a composition comprising 6% hydrogen peroxide at a weight ratio of 1 to 1 and applied onto hair and processed for 30 min at a temperature of 40° C. and rinsed off. It was observed that both composition colour hair in the same way to the same colour direction. The following observations were made on scalp irritation.

O=C(CCc1ccc(O)cc1)Nc1ccccc1C(=O)O [hydroxyphenyl propamidobenzoic acid, Hydroxyphenyl propamidobenzoic acid]
mildness and scalp compatibility of hair dyeing composition (conclusion in words): improved mildness of hair dyeing composition and improved scalp compatibility
